{"source": "paper PMC6930863", "about": "(CPT: Pharmacometrics & Systems Pharmacology, 2019)", "key": {"[1]": {"settings": "cited from earlier work"}, "[2]": {"settings": "human; cited from earlier work"}, "[3]": {"settings": "rat"}, "[4]": {"test_system": "proliferative cells (the stem cells and proliferative progenitors)", "assay": "Translated and calibrated human system toxicology model", "design": "species or system humans", "settings": "fitted to published villus area data after chemotherapy, value (% RSE)"}, "[5]": {"test_system": "proliferative crypt cells, including stem cells and proliferative progenitor cells", "assay_type": "in vivo, Sprague-Dawley rats", "settings": "rat, on proliferative crypt cells, fitted to plasma citrulline"}, "[6]": {"settings": "human; cited from earlier work", "remark": "listed apart in the source"}, "[7]": {"settings": "rat, fixed to literature value; cited from earlier work"}}, "note": "Several values for one entry are separate records, joined by “and”; a condition that tells them apart may be missing. Identical values can stand only once. Like-named read-outs stand apart in the source and are kept apart here.", "data": [{"smiles": "CCc1c2c(nc3ccc(OC(=O)N4CCC(N5CCCCC5)CC4)cc13)-c1cc3c(c(=O)n1C2)COC(=O)[C@]3(O)CC", "note": "[Irinotecan]", "values": [{"measurement": "occurrence of ≥grade 3 diarrhea in the BI3W schedule compared with Q3W", "setting": "[1]; 175 mg/m^2 days 1 and 10 every 3 weeks vs 350 mg/m^2 once every 3 weeks", "value": "significantly higher"}, {"measurement": "efficacy in both dosing regimens (Q3W and BI3W)", "setting": "[1]; 350 mg/m^2 Q3W vs 175 mg/m^2 BI3W", "value": "similar"}, {"measurement": "k12, rate constant from central to peripheral 1 of irinotecan", "setting": "[2]", "value": 57.8, "unit": "h⁻¹"}, {"measurement": "k21, rate constant from peripheral 1 to central of irinotecan", "setting": "[2]", "value": 2.58, "unit": "h⁻¹"}, {"measurement": "k31, rate constant from peripheral 2 to central of irinotecan", "setting": "[2]", "value": 0.0812, "unit": "h⁻¹"}, {"measurement": "Vmax, maximum rate of conversion from irinotecan to SN-38", "setting": "[3]; i.p. irinotecan, population TK model estimate", "value": 20.6, "unit": "nmol/h/kg"}, {"measurement": "Dmaxp, coefficient for maximum irinotecan loss during absorption", "setting": "[3]; i.p., population TK model estimate", "value": 430, "unit": "mg/kg"}, {"measurement": "ka, absorption rate constant of irinotecan", "setting": "[3]; i.p., % RSE NA", "value": 10, "unit": "h⁻¹"}]}, {"smiles": "CCc1c2c(nc3ccc(O)cc13)-c1cc3c(c(=O)n1C2)COC(=O)[C@]3(O)CC", "note": "[SN‐38, 7‐ethyl‐10‐hydroxy‐camptothecin]", "values": [{"measurement": "Vm, central volume of SN-38", "setting": "[2]", "value": 200, "unit": "L"}, {"measurement": "kem, elimination rate constant of SN-38", "setting": "[2]", "value": 2.52, "unit": "h⁻¹"}, {"measurement": "mk12, rate constant from central to peripheral 1 of SN-38", "setting": "[2]", "value": 2.6, "unit": "h⁻¹"}, {"measurement": "mk21, rate constant from peripheral 1 to central of SN-38", "setting": "[2]", "value": 0.0584, "unit": "h⁻¹"}, {"measurement": "kkill, cytotoxic rate by SN-38", "setting": "[4]", "value": "11.0 1/day/μM and 11.0 (0.0328) 1/day/μM"}, {"measurement": "kkill, cytotoxic rate by SN-38", "setting": "[5]", "value": 146, "unit": "M⁻¹ s⁻¹"}, {"measurement": "CLm, clearance of SN-38", "setting": "[3]; after i.p. irinotecan", "value": 7.73, "unit": "mL/min/kg"}, {"measurement": "Vm, volume of SN-38", "setting": "[3]; after i.p. irinotecan, % RSE NA", "value": 0.01, "unit": "L/kg"}]}, {"smiles": "NC(=O)NCCC[C@H](N)C(=O)O", "note": "[citrulline]", "values": [{"measurement": "kout, elimination rate constant of plasma citrulline", "setting": "[6]", "value": 18.6, "unit": "day⁻¹"}, {"measurement": "plasma citrulline half-life", "setting": "[6]", "value": "39 to 68.4", "unit": "min"}, {"measurement": "kout, elimination rate constant of plasma citrulline", "setting": "[7]", "value": 8.52, "unit": "day⁻¹"}]}]}
